We go through 103 compounds from the OPERA property sets (Mansouri et al. 2018).

SMILES strings stand for the structures. Where a SMILES comes first, the peptide text is derived from it. The star is where a group is joined. NHtBu = CC(C)(C)N*

The compound `CN(C)N=Nc1ccc2oc3ccccc3c2c1` yielded a lipophilicity (logP) of 4.55.

In turn, `COC(=O)n1cnc(CC(NC(=O)C2CCC(=O)N2)C(=O)N2CCCC2C(N)=O)c1` (stereo not drawn) displayed a logP of -1.88.

In turn, `CC(C)N(C=Nc1ccn(C2CC(O)C(CO)O2)c(=O)n1)C(C)C` (stereo not drawn) yielded a logP of 0.17.

Compound `CCCSP(=O)(OCC)Oc1cnn(-c2ccc(Cl)cc2)c1` (stereo not drawn) gave a logP of 3.77.

`Cc1cc(Cl)ccc1Cl` showed a logP of 3.97.

With `CN(C)Cc1ccc(-c2cccc(Nc3[nH]ccc3[N+](=O)[O-])c2)o1`, the logP amounted to 3.1.

With `COc1nc(C(Cl)(Cl)Cl)nc(C(Cl)(Cl)Cl)n1`, the logP was found to be 3.64.

On to `CC(C)Oc1cccc(NC(=O)c2ccccc2C(F)(F)F)c1`, for which the logP turned out to be 3.7.

`Cc1ccccc1NN=C(C#N)C#N` showed a logP of 2.38.

With `Clc1cc(Cl)c2oc3c(Cl)cc(Cl)c(Cl)c3c2c1`, the log partition coefficient (logP) was 6.34.

For the compound `C[Si](C)(C)C`, the logP came to 3.24.

The compound `CC(=O)OC1CC(OC2C(O)CC(OC3CCC4(C)C(CCC5C4CC(O)C4(C)C(C6=CC(=O)OC6)CCC54O)C3)OC2C)OC(C)C1OC1CC(O)C(O)C(C)O1` (stereo not drawn) came in with a logP of 2.

Compound `CCCCOC(=O)C(C(=O)OCCCC)=C1SCCS1` gave a logP of 4.6.

Compound `CC(=NNC(=S)NNC(=S)Nc1ccccc1Cl)c1ccccn1` displayed a logP of 2.67.

In turn, `COc1c([N+](=O)[O-])nc(C)n1C` gave a logP of -0.09.

As for `Cc1cccc(C)c1NC(=O)c1ccc(CN2CCCC2)cc1`, the logP was 3.14.

Consider `Clc1cc(-c2c(Cl)c(Cl)c(Cl)c(Cl)c2Cl)c(Cl)c(Cl)c1Cl`, for which the logP is 9.14.

`Cc1cccc(C)c1NC(=O)CN1CCN(CCCC(c2ccc(F)cc2)c2ccc(F)cc2)CC1` had a lipophilicity (logP) of 5.6.

For the compound `CCCCCOc1ccc2ccc(=O)oc2c1`, the logP was 3.92.

The compound `Cc1[nH]c2cccc3c2c1CC1NCC(C(=O)NC2(C(C)C)OC4(O)C5CCCN5C(=O)C(C(C)C)N4C2=O)C=C31` (stereo not drawn) showed a logP of 3.15.

Turning to `CC(C)CNC(=O)C1(O)C(C)CC2C3CCC4=CC(=O)C=CC4(C)C3(F)C(O)CC21C` (stereo not drawn), the logP amounted to 3.01.

Consider `CCCc1ccc(OCC(C)O)c2c(=O)cc(C(=O)O)oc12` (stereo not drawn), for which the logP came out at 3.

Regarding `CC(C)(C)C(=O)OCCOCn1cnc2c(=O)[nH]c(N)nc21`, the logP worked out at 0.3.

Consider `C#CCOc1c(Cl)cc(NC=NOc2ccc(C)cc2)cc1Cl`, for which the logP came out at 4.8.

`O=[N+]([O-])C=C1NCCN1Cc1ccccn1` yielded a logP of -0.87.

In turn, `CCN(CC)C(=O)COC(=O)C(C)c1ccc2cc(OC)ccc2c1` (stereo not drawn) gave a logP of 3.32.

Regarding `CCOC(=O)C(C)Oc1ccc(Oc2cnc3cc(C(F)(F)F)ccc3n2)cc1` (stereo not drawn), the logP turned out to be 4.37.

In the case of `CCC(C)C(NC(C)=O)C(=O)NC(CC(C)C)C(=O)NC(CC(=O)O)C(N)=O` (stereo not drawn) (Ac-Ile-Leu-Asp-NH2; configuration not given here), the logP is -0.04.

The compound `Clc1cccc(-c2cc(Cl)c(Cl)c(Cl)c2Cl)c1Cl` came in with a logP of 7.32.

The compound `Cc1cccc(C)c1NC(=O)c1ccc(CN2CCOCC2)cc1` had a logP of 2.

Compound `CCOC(=O)Cn1ccnc1C=Cc1ccc([N+](=O)[O-])o1` yielded a logP of 1.27.

Consider `CSCCC(NC(C)=O)C(=O)NC(Cc1ccccc1)C(N)=O` (stereo not drawn), for which the logP turned out to be 0.42.

`CC1CC2C3CCC4=CC(=O)C=CC4(C)C3(F)C(O)CC2(C)C1(O)C(=O)NCCCl` (stereo not drawn) had a logP of 2.73.

The compound `COc1ccccc1OCc1ccccc1CCCN1CCC(O)CC1` yielded a logP of 2.82.

`COC1CC(OC2CCC3(C=O)C4CCC5(C)C(C6=CC(=O)OC6)CCC5(O)C4CCC3(O)C2)OCC1OC1CC(O)C(O)C(C)O1` (stereo not drawn) returned a logP of -0.96.

Compound `CC(C)(C)NC(=O)C1CN(C(=O)OCc2ccccc2)CCN1CC(O)CC(Cc1ccccc1)C(=O)NC1c2ccccc2CC1O` (stereo not drawn) gave a logP of 4.67.

On to `CCCC(CCC)(NC(C)=O)C(N)=O`, for which the logP came to 0.75.

Compound `CCN1C(=O)C(=O)c2c(OC)cccc2C1=O` yielded a logP of 0.9.

For the compound `COc1cccc(NC(=O)OCCN2CCOCC2)c1`, the logP amounted to 2.19.

`Cc1n[nH]c(C(=O)N2CCCCC2)c1[N+](=O)[O-]` registered a logP of 0.79.

For `C#CCC(O)(c1cccnc1)c1ccc2ccccc2c1` (stereo not drawn), the logP came out at 2.14.

Consider `OCc1ccc(O)c2ncccc12`, for which the logP was 1.

`CC(=O)OCN1C(=O)C2=C(CCCC2)C1=O` had a logP of 1.15.

Consider `CCCCOC(=O)c1cnc2n(c1=O)C(C)CCC2` (stereo not drawn), for which the logP is 1.77.

The compound `Cc1cc(OCCN(C)C)c(C(C)C)cc1OS(=O)(=O)C12CCC(CC1=O)C2(C)C` (stereo not drawn) returned a logP of 4.37.

Compound `N#CC(C#N)=NNc1ccccc1Cl` had a logP of 3.12.

With `CCN(C=Nc1ccn(C2OC(CO)C(O)C2O)c(=O)n1)CC` (stereo not drawn), the logP is -0.76.

`COC(=O)c1ccc(OCC(OC(=O)n2ccnc2)C(C)(C)C)cc1` (stereo not drawn) had a logP of 3.59.

Compound `CCCCCOc1ccccc1NC(=O)OCCN1CCOCC1` returned a logP of 3.7.

In turn, `CCCCCCC(=O)N1CCCC1=O` gave a logP of 3.04.

`Nc1nc(=O)n(C2CCC(CO)O2)cc1I` (stereo not drawn) gave a logP of -0.31.

`CCC(=O)c1ccc2c(c1)N(CC(C)N(C)C)c1ccccc1S2` (stereo not drawn): the logP turned out to be 4.79.

Turning to `CC(=O)OC1CC2(O)C3CCC4CC(OC5CC(O)C(OC6CC(O)C(OC7CC(O)C(O)C(C)O7)C(C)O6)C(C)O5)CCC4(C)C3CCC2(C)C1C1=CC(=O)OC1` (stereo not drawn), the logP was determined as 2.16.

`CC(=O)c1ccc(O)c2ncccc12`: the logP came out at 1.8.

`O=[N+]([O-])C=C1NCCCN1Cc1ccc(Cl)nc1` came in with a logP of -0.62.

With `COP(=O)(OC)O/C(C)=C/C(=O)OC(C)c1ccccc1` (stereo not drawn), the logP worked out at 3.3.

The compound `CC(=O)NC(CCCCN)C(=O)NC(Cc1ccccc1)C(=O)NC(CC(C)C)C(N)=O` (stereo not drawn) (Ac-Lys-Phe-Leu-NH2; configuration not given here) registered a logP of 0.98.

For `O=C(Cn1c(=O)sc2ccc(Cl)cc21)N1CC[N+]([O-])(CCO)CC1`, the logP worked out at 0.05.

Consider `NC(=O)CC(CC(=O)O)c1ccc(Br)cc1` (stereo not drawn), for which the logP came out at 1.12.

In turn, `C#CCOc1c(Cl)cc(NC=NOCCOCC)cc1Cl` had a lipophilicity (logP) of 3.7.

With `FC(F)(F)C(F)(F)c1ccccc1`, the logP stood at 3.36.

`Cc1nc([N+](=O)[O-])cn1C`: the logP is -0.24.

`CC1(CO)COC(Cn2cncn2)(c2ccc(Cl)cc2Cl)OC1` (stereo not drawn) came in with a logP of 2.1.

With `c1ccc(OCc2cccc(CN3CCCC3)c2)cc1`, the logP worked out at 3.75.

Regarding `CC(C)(C)C(COc1ccc(S(C)(=O)=O)cc1)OC(=O)n1ccnc1` (stereo not drawn), the logP came out at 2.59.

As to `CC(C)CCCNC(=O)C1(O)C(C)CC2C3CCC4=CC(=O)C=CC4(C)C3(F)C(O)CC21C` (stereo not drawn), the logP is 3.93.

On to `Nc1ncnc2c1ncn2C1OC(CO)CC1O` (stereo not drawn), for which the logP is -0.61.

`Cc1ncc([N+](=O)[O-])n1CCSC(=S)N(C)C` returned a logP of 1.28.

Consider `CCC1COC(Cn2cncn2)(c2ccc(NC(=O)C(F)(F)F)cc2)O1` (stereo not drawn), for which the logP turned out to be 1.08.

Take `CCN1C(=O)C(=O)c2ccc(Cl)cc2C1=O`: the logP is 1.79.

`O=C(O)C(OCc1ccccc1)c1ccccc1` (stereo not drawn) returned a logP of 2.

Consider `Cc1ccc(SCCNc2ccccc2C(N)=O)cc1`, for which the logP was found to be 3.15.

Take `NC(CCc1ccccc1)C(=O)O` (stereo not drawn): the logP was -1.2.

As for `CSC1=NCCN1c1ccc([N+](=O)[O-])o1`, the logP stood at 1.19.

Take `CN(CCCn1ccnc1C=NO)S(=O)(=O)C(F)(F)F`: the logP was 1.77.

Take `Clc1cccc(-c2c(Cl)c(Cl)c(Cl)c(Cl)c2Cl)c1`: the logP stood at 7.3.

Consider `CC(=O)NC(C)C(=O)N1CCCC1C(=O)NC(C)C(=O)NC(C)(C)C` (stereo not drawn) (Ac-Ala-Pro-Ala-NHtBu; configuration not given here), for which the logP is -0.39.

The compound `CC(=O)NC(CC(C)C)C(=O)NC(Cc1ccccc1)C(=O)NC(CCCNC(=N)N)C(N)=O` (stereo not drawn) (Ac-Leu-Phe-Arg-NH2; configuration not given here) had a logP of -0.12.

With `CCCCCCC(C)(C)c1ccc(C2CC(O)CC3CCC(O)CC32)c(O)c1` (stereo not drawn), the logP was determined as 6.13.

For the compound `CSC(SC)=C(C(=O)OC(C)C)C(=O)OC(C)C`, the logP turned out to be 3.38.

For `CNc1nccn2cc(-c3ccc(S(C)=O)cc3OC)nc12` (stereo not drawn), the logP is 1.88.

`CCOC(=S)NCCn1c([N+](=O)[O-])cnc1C` had a log partition coefficient (logP) of 1.5.

`Brc1ccc(Br)c(-c2cc(Br)c(Br)cc2Br)c1`: the logP came to 7.1.

For the compound `O=C(Cn1ccnc1[N+](=O)[O-])NCCCO`, the logP was -1.27.

Compound `O=c1ccn(C2C=C(CO)C(O)C2O)c(=O)[nH]1` (stereo not drawn) gave a logP of -2.19.

For `CC1CC2C3CCC4=CC(=O)C=CC4(C)C3(F)C(O)CC2(C)C1(O)C(=O)NCC#N` (stereo not drawn), the logP was found to be 1.57.

Compound `CC(C)(C)C(COc1ccc(C(F)(F)F)cc1)OC(=O)n1ccnc1` (stereo not drawn) returned a logP of 4.15.

For `Cc1cn(C2CC(N=[N+]=[N-])C(COC(=O)CCNC(=O)C34CC5CC(CC(C5)C3)C4)O2)c(=O)[nH]c1=O` (stereo not drawn), the logP stood at 2.14.

`CCCCCOc1cccc(NC(=O)OCCN2CCOCC2)c1`: the logP came to 4.13.

`NC(COCc1cccnc1)C(=O)O` (stereo not drawn) yielded a logP of -2.44.

Compound `CNC(=NC#N)NCCSCc1ncn(COC(=O)C(C)(C)C)c1C` returned a logP of 1.81.

Take `FC(F)(F)C1(F)C(F)(F)C(F)(F)C(F)(N2C(F)(F)C(F)(F)C(F)(F)C(F)(F)C2(F)F)C(F)(F)C1(F)F` (stereo not drawn): the logP was found to be 7.1.

On to `COCC(Cn1ccnc1[N+](=O)[O-])OC(C)=O` (stereo not drawn), for which the logP was -0.04.

`CCOC(=O)CCC(C)n1nnc2ccccc21` (stereo not drawn) gave a logP of 2.64.

On to `CC(C)(C)c1ccc2c(c1)OCCOCCOCCOCCO2`, for which the logP stood at 2.26.

As for `OCC1COC(Cn2cncn2)(c2ccc(Cl)cc2Cl)O1` (stereo not drawn), the logP was found to be 1.76.

For `CCCOc1cccc(NC(=O)OCCN2CCOCC2)c1`, the logP came out at 3.04.

As for `CC(CO)OC(C)CO` (stereo not drawn), the logP is -0.67.

In turn, `Cc1cccc(Cl)c1Cl` had a logP of 3.96.

The compound `NC(=O)C(=Cc1ccc([N+](=O)[O-])o1)c1ccco1` showed a logP of 0.15.

Compound `CCN1CCN(C(=O)N[C@@H](C(=O)N[C@@H]2C(=O)N3[C@@H]2SC(C)(C)[C@@H]3C(=O)O)c2ccccc2)C(=O)C1=O` returned a logP of 0.5.

As for `CCCOc1ccccc1NC(=O)OCCN1CCOCC1`, the logP is 2.78.

The compound `O=S(=O)(NCc1ccccc1)C(F)(F)F` gave a logP of 2.91.
